Measurements as given in ChEMBL document CHEMBL2203069, “Synthesis and structure-activity relationships of a novel series of pyrimidines as potent inhibitors of TBK1/IKKε kinases” (Bioorg Med Chem Lett, 2012).

How the values were obtained:
[1] = Metabolic stability in mouse liver microsomes assessed as compound turnover after 30 mins; format: ADME, Microsome; conditions: read-out: Drug metabolism
[2] = target: T1, Serine/threonine-protein kinase TBK1 (Homo sapiens, UniProt Q9UHD2); assay: Inhibition of TBK1 by radiometry
T1 sequence (Q9UHD2 whole entry): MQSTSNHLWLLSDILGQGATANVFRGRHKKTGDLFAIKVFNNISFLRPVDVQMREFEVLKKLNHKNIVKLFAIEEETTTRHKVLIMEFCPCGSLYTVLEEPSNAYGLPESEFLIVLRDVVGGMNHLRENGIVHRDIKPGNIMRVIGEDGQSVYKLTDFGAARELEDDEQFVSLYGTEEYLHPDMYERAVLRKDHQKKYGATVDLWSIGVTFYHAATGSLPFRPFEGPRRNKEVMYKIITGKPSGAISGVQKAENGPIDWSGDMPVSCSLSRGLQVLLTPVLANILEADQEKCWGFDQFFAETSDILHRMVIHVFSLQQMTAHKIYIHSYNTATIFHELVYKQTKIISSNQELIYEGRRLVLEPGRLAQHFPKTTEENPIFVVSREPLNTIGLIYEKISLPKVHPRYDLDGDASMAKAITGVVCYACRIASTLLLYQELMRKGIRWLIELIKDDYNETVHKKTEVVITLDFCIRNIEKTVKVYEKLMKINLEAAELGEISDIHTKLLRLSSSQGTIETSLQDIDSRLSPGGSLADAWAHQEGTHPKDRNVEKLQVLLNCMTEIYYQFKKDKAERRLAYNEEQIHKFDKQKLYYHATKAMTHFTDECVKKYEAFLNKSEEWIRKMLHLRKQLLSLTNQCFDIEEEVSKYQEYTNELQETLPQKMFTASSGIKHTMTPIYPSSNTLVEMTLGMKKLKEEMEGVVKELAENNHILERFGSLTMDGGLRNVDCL

[3] = Metabolic stability in human liver microsomes assessed as compound turnover after 40 mins; format: ADME, Microsome; conditions: read-out: Drug metabolism
[4] = Permeability from apical to basolateral side of human Caco2 cells; format: ADME, cell-based; conditions: Caco-2, read-out: permeability
[5] = Efflux ratio of permeability from basolateral to apical side to apical to basolateral side in human Caco2 cells; format: ADME, cell-based; conditions: Caco-2
[6] = target: T2, Serine/threonine-protein kinase TBK1 (Mus musculus, UniProt Q9WUN2); assay: Inhibition of TBK1-mediated RANTES release in LPS-stimulated mouse RAW264.7 cells compound incubated for 30 mins prior LPS challenge measured after 6 hrs by ELISA; format: cell-based; conditions: read-out: IC50
T2 sequence (Q9WUN2 whole entry): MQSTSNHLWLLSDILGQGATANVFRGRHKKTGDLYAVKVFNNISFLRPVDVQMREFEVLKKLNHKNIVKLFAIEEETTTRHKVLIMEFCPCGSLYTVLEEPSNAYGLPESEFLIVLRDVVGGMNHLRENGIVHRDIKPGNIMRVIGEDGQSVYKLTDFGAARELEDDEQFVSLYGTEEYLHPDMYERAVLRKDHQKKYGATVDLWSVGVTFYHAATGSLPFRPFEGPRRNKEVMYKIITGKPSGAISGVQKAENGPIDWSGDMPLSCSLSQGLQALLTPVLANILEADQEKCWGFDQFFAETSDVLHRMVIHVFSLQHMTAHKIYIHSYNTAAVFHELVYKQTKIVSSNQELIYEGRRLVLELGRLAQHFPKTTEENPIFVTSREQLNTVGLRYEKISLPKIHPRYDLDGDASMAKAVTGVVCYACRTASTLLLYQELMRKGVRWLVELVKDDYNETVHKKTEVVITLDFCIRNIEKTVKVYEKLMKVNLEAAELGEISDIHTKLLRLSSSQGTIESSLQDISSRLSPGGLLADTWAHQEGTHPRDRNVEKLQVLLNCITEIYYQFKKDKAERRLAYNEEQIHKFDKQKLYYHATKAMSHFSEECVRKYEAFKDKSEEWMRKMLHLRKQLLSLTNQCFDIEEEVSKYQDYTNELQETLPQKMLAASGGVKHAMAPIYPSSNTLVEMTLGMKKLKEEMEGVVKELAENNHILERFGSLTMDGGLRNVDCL

[7] = target: T3, 3-phosphoinositide-dependent protein kinase 1 (Homo sapiens, UniProt O15530); assay: Inhibition of PDK1 by radiometry
T3 sequence (O15530 whole entry): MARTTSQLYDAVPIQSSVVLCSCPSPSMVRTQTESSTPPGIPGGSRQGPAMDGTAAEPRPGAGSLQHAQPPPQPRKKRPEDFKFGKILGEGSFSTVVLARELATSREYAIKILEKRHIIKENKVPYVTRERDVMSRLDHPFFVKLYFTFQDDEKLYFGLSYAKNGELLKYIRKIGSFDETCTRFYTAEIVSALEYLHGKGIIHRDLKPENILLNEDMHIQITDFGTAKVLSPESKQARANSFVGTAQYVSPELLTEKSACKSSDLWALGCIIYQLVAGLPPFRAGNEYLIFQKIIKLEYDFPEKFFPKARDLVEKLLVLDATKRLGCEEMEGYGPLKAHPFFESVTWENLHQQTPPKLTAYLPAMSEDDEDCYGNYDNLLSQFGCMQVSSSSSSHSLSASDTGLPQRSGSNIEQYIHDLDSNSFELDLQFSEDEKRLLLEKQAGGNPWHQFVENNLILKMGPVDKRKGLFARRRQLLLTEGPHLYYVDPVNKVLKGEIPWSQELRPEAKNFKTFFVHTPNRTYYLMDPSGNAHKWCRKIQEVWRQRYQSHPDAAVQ

[8] = target: MAP/microtubule affinity-regulating kinase 3 (Homo sapiens, UniProt P27448); assay: Inhibition of MARK3
Chain of MAP/microtubule affinity-regulating kinase 3 (P27448 whole entry): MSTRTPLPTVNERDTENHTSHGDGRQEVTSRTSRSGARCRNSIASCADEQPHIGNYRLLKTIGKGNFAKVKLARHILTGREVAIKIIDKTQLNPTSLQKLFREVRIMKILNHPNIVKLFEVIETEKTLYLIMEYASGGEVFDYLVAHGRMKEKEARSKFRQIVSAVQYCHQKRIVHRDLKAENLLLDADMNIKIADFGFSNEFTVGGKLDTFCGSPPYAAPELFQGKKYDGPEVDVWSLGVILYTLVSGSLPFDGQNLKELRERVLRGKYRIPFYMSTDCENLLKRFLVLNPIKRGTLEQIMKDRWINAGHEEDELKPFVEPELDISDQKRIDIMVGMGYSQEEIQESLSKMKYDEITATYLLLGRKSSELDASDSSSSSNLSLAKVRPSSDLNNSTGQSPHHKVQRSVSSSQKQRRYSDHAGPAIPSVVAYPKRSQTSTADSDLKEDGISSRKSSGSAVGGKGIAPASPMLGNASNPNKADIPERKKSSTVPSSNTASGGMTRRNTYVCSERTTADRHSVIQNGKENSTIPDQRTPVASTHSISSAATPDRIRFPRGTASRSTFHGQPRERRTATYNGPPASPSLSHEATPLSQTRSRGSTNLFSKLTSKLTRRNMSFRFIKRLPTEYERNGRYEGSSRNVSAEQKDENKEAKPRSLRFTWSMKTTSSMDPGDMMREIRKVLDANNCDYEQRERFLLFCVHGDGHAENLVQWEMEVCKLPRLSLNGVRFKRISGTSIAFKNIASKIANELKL

[9] = Inhibition of AMPK
[10] = target: T4, Serine/threonine-protein kinase BRSK2 (Homo sapiens, UniProt Q8IWQ3); assay: Inhibition of BRSK2
T4 sequence (Q8IWQ3 whole entry): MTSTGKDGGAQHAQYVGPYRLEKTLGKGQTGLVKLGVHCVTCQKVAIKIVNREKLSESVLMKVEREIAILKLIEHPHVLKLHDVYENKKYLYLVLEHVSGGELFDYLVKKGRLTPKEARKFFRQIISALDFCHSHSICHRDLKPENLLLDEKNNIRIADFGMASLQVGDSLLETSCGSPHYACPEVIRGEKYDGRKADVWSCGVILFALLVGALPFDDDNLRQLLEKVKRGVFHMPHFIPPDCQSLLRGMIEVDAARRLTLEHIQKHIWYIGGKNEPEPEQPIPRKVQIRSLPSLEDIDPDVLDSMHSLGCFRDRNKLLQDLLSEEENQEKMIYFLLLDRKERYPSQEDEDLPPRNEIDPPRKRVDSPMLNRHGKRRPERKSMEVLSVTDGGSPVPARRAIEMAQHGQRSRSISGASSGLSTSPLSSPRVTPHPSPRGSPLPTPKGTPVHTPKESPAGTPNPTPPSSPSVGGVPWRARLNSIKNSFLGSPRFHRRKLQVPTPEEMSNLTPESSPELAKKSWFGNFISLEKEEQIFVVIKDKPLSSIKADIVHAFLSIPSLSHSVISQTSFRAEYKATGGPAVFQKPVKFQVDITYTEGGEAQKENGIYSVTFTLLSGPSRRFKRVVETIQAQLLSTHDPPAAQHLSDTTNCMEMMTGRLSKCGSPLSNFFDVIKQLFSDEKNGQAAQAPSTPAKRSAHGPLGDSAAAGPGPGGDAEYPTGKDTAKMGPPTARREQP

[11] = target: MAP kinase-interacting serine/threonine-protein kinase 1 (Homo sapiens, UniProt Q9BUB5); assay: Inhibition of MNK1
Chain of MAP kinase-interacting serine/threonine-protein kinase 1 (Q9BUB5 whole entry): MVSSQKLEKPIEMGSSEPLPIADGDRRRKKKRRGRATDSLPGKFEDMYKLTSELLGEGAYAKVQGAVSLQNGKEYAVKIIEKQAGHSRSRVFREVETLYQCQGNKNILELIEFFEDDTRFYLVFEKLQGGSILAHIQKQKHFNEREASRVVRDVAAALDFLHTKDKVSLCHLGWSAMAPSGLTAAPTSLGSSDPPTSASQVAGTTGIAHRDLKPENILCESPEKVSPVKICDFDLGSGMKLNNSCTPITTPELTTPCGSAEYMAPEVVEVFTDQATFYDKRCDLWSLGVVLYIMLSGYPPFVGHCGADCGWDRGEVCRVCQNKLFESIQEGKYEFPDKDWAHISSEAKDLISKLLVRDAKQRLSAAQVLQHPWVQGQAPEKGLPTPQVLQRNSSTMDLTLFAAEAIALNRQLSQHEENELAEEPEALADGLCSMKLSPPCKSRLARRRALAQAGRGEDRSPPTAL

[12] = target: Cyclin-dependent kinase 2 (Homo sapiens, UniProt P24941); assay: Inhibition of CDK2
[13] = Inhibition of VEGFR
Aurora kinase B = Aurora kinase B (Homo sapiens, UniProt Q96GD4); assay: Inhibition of Aurora B
Chain of Aurora kinase B (Q96GD4 whole entry): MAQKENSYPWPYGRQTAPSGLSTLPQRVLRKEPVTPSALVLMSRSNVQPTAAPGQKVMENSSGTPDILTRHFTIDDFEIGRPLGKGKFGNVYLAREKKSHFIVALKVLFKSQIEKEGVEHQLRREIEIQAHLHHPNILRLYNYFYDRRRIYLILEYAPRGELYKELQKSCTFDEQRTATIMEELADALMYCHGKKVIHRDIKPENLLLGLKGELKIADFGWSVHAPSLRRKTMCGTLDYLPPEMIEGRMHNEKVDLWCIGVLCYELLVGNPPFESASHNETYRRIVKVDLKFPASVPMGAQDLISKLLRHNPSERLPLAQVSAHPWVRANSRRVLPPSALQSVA

[14] = target: T5, Inhibitor of nuclear factor kappa-B kinase subunit epsilon (Homo sapiens, UniProt Q14164); assay: Inhibition of IKKepsilon
T5 sequence (Q14164 whole entry): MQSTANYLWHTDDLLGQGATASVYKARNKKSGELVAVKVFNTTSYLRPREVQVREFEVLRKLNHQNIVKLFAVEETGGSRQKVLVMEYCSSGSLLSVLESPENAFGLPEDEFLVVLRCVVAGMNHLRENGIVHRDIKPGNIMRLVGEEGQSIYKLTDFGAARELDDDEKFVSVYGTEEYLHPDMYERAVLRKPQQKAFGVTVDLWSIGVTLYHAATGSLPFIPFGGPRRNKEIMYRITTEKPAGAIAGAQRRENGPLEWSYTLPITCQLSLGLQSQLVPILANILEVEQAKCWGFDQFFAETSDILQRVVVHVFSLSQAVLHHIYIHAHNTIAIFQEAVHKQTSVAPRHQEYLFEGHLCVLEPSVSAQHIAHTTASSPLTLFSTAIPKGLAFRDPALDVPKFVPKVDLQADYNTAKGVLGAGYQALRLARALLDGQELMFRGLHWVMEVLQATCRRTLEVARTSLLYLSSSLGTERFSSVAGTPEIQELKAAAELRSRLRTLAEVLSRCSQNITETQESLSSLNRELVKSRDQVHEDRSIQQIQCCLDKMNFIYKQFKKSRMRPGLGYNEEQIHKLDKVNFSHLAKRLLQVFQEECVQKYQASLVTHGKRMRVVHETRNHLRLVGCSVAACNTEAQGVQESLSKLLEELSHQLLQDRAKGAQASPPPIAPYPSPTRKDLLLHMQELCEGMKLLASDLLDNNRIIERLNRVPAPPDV

Structure (SMILES)	metabolised at 0.5 h [1] [%]	IC50 [2] [nM]	metabolised at 40 min [3] [%]	Papp A→B [4] [×10⁻⁶ cm/s]	efflux ratio [5]	IC50 [6] [nM]	other results
CC(C)N1CCC(n2cc(Nc3ncc(C4CC4)c(NCCCNC(=O)C4CCC4)n3)cn2)CC1	42	7	24	1.4	16	3000	–
O=C(NCCCNc1nc(Nc2cccc(F)c2)ncc1Br)C1CCCC1	–	8	–	–	–	–	IC50 [7]: 220 nM
O=C(NCCCNc1nc(Nc2cccc(F)c2)ncc1Br)c1cccs1	–	9	–	–	–	–	IC50 [7]: 130 nM
O=C(NCCCNc1nc(Nc2cnn(C3CC3)c2)ncc1C1CC1)C1CCC1	24	10	32	–	–	130	–
O=C(NCCCNc1nc(Nc2cnn(C3CCC3)c2)ncc1C1CC1)C1CCC1	61	2	61	–	–	220	–
O=C(NCCCNc1nc(Nc2ccc(N3CCOCC3)cc2)ncc1C1CC1)C1CCC1	53	6	18	34	1	58	IC50 [8]: 12 nM; IC50 [9]: 550 nM; IC50 [10]: 1900 nM; IC50 [11]: 19000 nM; IC50 [12]: 630 nM; IC50 [13]: 3600 nM; IC50 (Aurora kinase B): 700 nM; IC50 [14]: 30 nM
O=C(NCCCNc1nc(Nc2cccc(F)c2)ncc1C1CC1)C1CCC1	74	8	80	–	–	1300	IC50 [7]: 580 nM
Cn1ncc2cc(Nc3ncc(C4CC4)c(NCCCNC(=O)C4CCC4)n3)ccc21	40	16	42	–	–	380	–
CC(C)n1cc(Nc2ncc(C3CC3)c(NCCCNC(=O)C3CCC3)n2)cn1	41	4	61	–	–	81	–
O=C(NCCCNc1nc(Nc2ccc(N3CCOCC3)nc2)ncc1C1CC1)C1CCC1	92	15	15	–	–	490	–
O=C(NCCCNc1nc(Nc2cccc(-c3cnco3)c2)ncc1C1CC1)C1CCC1	34	11	26	–	–	560	–
O=C(NCCCNc1nc(Nc2cccc(F)c2)ncc1Br)C1CCC1	–	–	–	–	–	–	IC50 [7]: 68 nM
O=C(NCCCNc1nc(Nc2ccc(-n3cncn3)cc2)ncc1C1CC1)C1CCC1	35	3	23	10	3	150	–
O=C(NCCCNc1nc(Nc2ccc(CN3CCCCC3)nc2)ncc1C1CC1)C1CCC1	–	9	–	0.1	780	1200	–
CN(C)Cc1ccc(Nc2ncc(C3CC3)c(NCCCNC(=O)C3CCC3)n2)cc1	–	6	–	1	56	550	–
O=C(NCCCNc1nc(Nc2cnn(C3CCOCC3)c2)ncc1C1CC1)C1CCC1	33	2	25	–	–	280	–
